# Data as given in patent publication US20250339569A1, “CARBONIC ANHYDRASE IX LIGANDS” (priority 2021, published 2025).
# Read-outs that look alike come from different tables or passages of the source. Starred links: 1 amine or outer side, 2 acyl side, 3 side chain; linkers in the order of their positions; H or OH if unused. Positions of bridges follow the written chain, without caps; N, C: chain ends. Non-standard residues stand in square brackets, D forms with d. Residues, ends and D or L forms follow the SMILES beside them. *: point of attachment. X4 = CS(=O)(=O)CC(=O)Nc1cccc(C[C@H](N[*:1])C(=O)[*:2])c1; DOTA = O=C(O)CN1CCN(CC(=O)O)CCN(CC(=O)*)CCN(CC(=O)O)CC1; X5 = O=C(O)CCCC(=O)Nc1cccc(C[C@H](N[*:1])C(=O)[*:2])c1; X6 = O=C(O)CCC(=O)Nc1cccc(C[C@H](N[*:1])C(=O)[*:2])c1; mXylylene = c1cc(C[*:1])cc(C[*:2])c1; X2 = O=C(CN1CCC(N[*:1])CC1)[*:2]
# Experiments:
# [1] = molecular target: T1, CAIX-expressing human HT-29 colorectal cancer cells (Homo sapiens, UniProt Q16790); assay: FACS binding assay (IC50 determination, competition with tracer 3BP-2776 or 3BP-4149); settings: FACS binding assay, HT-29 cells, 4° C., 1 hour, read-out: pIC50 category (activity) (converted)
# T1 construct: CAIX-expressing human HT-29 colorectal cancer cells; host or cells: HT-29 human colorectal cancer cells
# In short: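 HT-29 cells in FACS buffer (PBS, 1% FCS) at 500.000 cells/ml were exposed to compounds competing with a labelled tracer, with biotinylated compounds detected by 1 μg/mL APC-streptavidin for 30 min on ice. APC/Cy5 median fluorescence was read by flow cytometry and IC50 derived by 4PL fit.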
# [2] = molecular target: T2, human carbonic anhydrase IX (hCAIX-Fc) (Homo sapiens, UniProt Q16790); assay: Surface plasmon resonance assay with hCAIX-Fc; format: binding; settings: 25° C.; for t1/2 category (activity): SPR dissociation half-life, hCAIX-Fc; for Kd: SPR, hCAIX-Fc captured, read-out: pKD category (activity) (converted)
# T2 construct: purchased SinoBliological (Sino Biological) 10107-H02H
# [3] = mouse, plasma, 24 h
# [4] = competition with tracer 3BP-2776 (10 nM, biotin-labeled)
"IC50 ([1]; competition with tracer 3BP-4149 (3 nM, Cy5-labeled))",t1/2 category (activity) [2],Kd [2],% intact compound remaining (incubation time) [3],"IC50 [1, 4]",Structure (SMILES)
< 10 nM,A (t1/2>15.0 minutes),< 10 nM,>95%,–,CC(C)C[C@@H]1NC(=O)[C@H](Cc2cccc(NC(=O)CCCC(=O)O)c2)NC(=O)[C@H](CC(=O)O)NC(=O)[C@H]2CCCN2C(=O)[C@H](CCC(=O)O)NC(=O)[C@@H](NC(=O)[C@H](Cc2ccc(O)cc2)NC(=O)[C@@H](NC(=O)CN2CCC(NC(=O)CN3CCN(CC(=O)O)CCN(CC(=O)O)CCN(CC(=O)O)CC3)CC2)C(C)C)CSCc2cccc(c2)CSC[C@@H](C(N)=O)NC(=O)[C@H](CO)NC(=O)[C@H](Cc2c[nH]c3ccccc23)NC(=O)[C@H]([C@@H](C)O)NC1=O [3BP-4367] ({DOTA}-[X2]VYCE[dP]D[X5]LTWSC-NH2; linker 4-13 via mXylylene)
–,B (t1/2 between 5.1 and 15.0 minutes),< 10 nM,>95%,< 10 nM,CC(C)C[C@@H]1NC(=O)[C@H](Cc2cccc(NC(=O)CS(C)(=O)=O)c2)NC(=O)[C@H](CC(=O)O)NC(=O)[C@H]2CCCN2C(=O)[C@H](CCC(=O)O)NC(=O)[C@@H](NC(=O)[C@H](Cc2ccc(O)cc2)NC(=O)[C@@H](NC(=O)CN2CCC(NC(=O)CN3CCN(CC(=O)O)CCN(CC(=O)O)CCN(CC(=O)O)CC3)CC2)C(C)C)CSCc2cccc(c2)CSC[C@@H](C(N)=O)NC(=O)[C@H](CO)NC(=O)[C@H](Cc2c[nH]c3ccccc23)NC(=O)[C@H]([C@@H](C)O)NC1=O [3BP-4242] ({DOTA}-[X2]VYCE[dP]D[X4]LTWSC-NH2; linker 4-13 via mXylylene)
–,A (t1/2>15.0 minutes),< 10 nM,>95%,< 10 nM,"CC(C)C[C@@H]1NC(=O)[C@H](Cc2cccc(NC(=O)CCC(=O)O)c2)NC(=O)[C@H](CC(=O)O)NC(=O)[C@H]2CCCN2C(=O)[C@H](CCC(=O)O)NC(=O)[C@@H](NC(=O)[C@H](Cc2ccc(O)cc2)NC(=O)[C@@H](NC(=O)CN2CCC(NC(=O)CN3CCN(CC(=O)O)CCN(CC(=O)O)CCN(CC(=O)O)CC3)CC2)C(C)C)CSCc2cccc(c2)CSC[C@@H](C(N)=O)NC(=O)[C@H](CO)NC(=O)[C@H](Cc2c[nH]c3ccccc23)NC(=O)[C@H]([C@@H](C)O)NC1=O [3BP-4237, DOTA-APAc-Val-Tyr-[Cys(3MeBn)-Glu-pro-Asp-Af3(HO-Succinyl)-Leu-Thr-Trp-Ser-Cys]-NH2] ({DOTA}-[X2]VYCE[dP]D[X6]LTWSC-NH2; linker 4-13 via mXylylene)"
